Reference: ChEMBL document CHEMBL2321687, “Identification of a novel arylpiperazine scaffold for fatty acid amide hydrolase inhibition with improved drug disposition properties” (Bioorg Med Chem Lett, 2013)

Biological target: T1, Fatty-acid amide hydrolase 1 (Mus musculus, UniProt O08914)
T1 sequence (O08914 whole entry): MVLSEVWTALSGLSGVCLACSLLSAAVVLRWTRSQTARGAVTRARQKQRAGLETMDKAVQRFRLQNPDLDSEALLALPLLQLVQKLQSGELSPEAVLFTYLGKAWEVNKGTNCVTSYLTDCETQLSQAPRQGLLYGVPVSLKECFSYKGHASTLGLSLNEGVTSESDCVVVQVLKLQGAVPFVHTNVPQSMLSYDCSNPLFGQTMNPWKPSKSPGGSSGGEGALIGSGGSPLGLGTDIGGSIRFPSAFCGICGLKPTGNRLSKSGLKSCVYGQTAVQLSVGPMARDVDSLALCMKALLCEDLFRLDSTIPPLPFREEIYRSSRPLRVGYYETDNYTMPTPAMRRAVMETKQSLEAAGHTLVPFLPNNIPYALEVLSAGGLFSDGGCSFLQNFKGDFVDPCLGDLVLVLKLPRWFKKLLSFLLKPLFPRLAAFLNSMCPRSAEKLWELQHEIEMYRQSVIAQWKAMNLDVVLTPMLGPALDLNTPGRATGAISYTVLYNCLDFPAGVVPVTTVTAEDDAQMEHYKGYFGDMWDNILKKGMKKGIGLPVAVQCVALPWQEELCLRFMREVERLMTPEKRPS
Assay: Inhibition of FAAH in mouse brain homogenate using [3Hethanolamine]AEA as substrate incubated for 20 mins prior to substrate addition measured after 15 mins by beta counting analysis
Format: tissue-based

| Ki [µM] | SMILES |
| --- | --- |
| 0.263 | O=C(NCCCCCCc1ccccc1)N1CCN(c2cccc(-n3cccc3)c2)CC1 |
| > 0.5 | NC(=O)c1ccn(-c2cccc(C(=O)N3CCN(CCCCCCc4ccccc4)CC3)c2)c1 |
| 0.27 | N#Cc1ccn(-c2cccc(N3CCN(CCCCCCc4ccccc4)CC3)c2)c1 |
